{"source": "patent US20200031920A1", "about": "“Combination Therapy for Treating Cancer” (The George Washington University, priority 2017, published 2020)", "molecules": {"B1": {"name": "recombinant IL-11: recombinant human IL-11 (R&D Systems) (protein, UniProt P20809 22-199, looked up)", "Interleukin-11": "PGPPPGPPRVSPDPRAELDSTVLLTRSLLADTRQLAAQLRDKFPADGDHNLDSLPTLAMSAGALGALQLPGVLTRLRADLLSYLRHVQWLRRAGGSSLKTLEPELGTLQARLDRLLRRLQLLMSRLALPQPPPDPPAPPLAPPSSAWGGIRAAHAILGGLHLTLDWAVRGLLLLKTRL"}}, "key": {"[1]": {"test_system": "SKOV3 CR cells", "assay": "cell viability / proliferation (SRB) assay, cisplatin resistant SKOV3 CR cells", "type": "cell-based", "conditions": "for sensitization of SKOV3 CR cells to cisplatin (proliferation): combination with cisplatin at different doses, FIG. 13: 0.4 μM LY2784544, five days; for medium CI (combination index): combination with cisplatin, CI<1 synergism", "method": "(§1) FIG. 1 is a line graph showing the proliferation of SKOV3 parental and SKOV3 CR cells treated with increasing concentrations of cisplatin for five days. Data are represented as mean±SD from three independent experiments performed in triplicate. Indicated IC50 values represent the mean of two independent experiments performed in triplicate.\n(§2) FIG. 13 is a line graph showing the proliferation of SKOV3 parental and SKOV3 CR cells treated with increasing concentrations of cisplatin and 0.4 μM LY2784544 for five days. Data are represented as mean±SD from three independent experiments performed in triplicate.\n(§3) Cisplatin resistant ovarian cancer cell lines were generated using procedures as described previously. Jazaeri et al., Mol Cancer Ther 12: 1958-1967 (2013). Ovarian cancer cells SKOV3 were cultured in the medium with cisplatin (Sigma-Aldrich) for three weeks, followed by release to cisplatin-free medium for another three weeks. In the next cycle, the cisplatin treatment was repeated in the medium with an increased concentration of cisplatin. After six-cycle treatment, cells were identified that were able to grow in the medium with a high concentration of cisplatin. These cisplatin resistant cells were named as SKOV3 CR (FIG. 1).\n(§4) The results obtained from combinational HTS were confirmed by testing whether LY2784544 overcomes cisplatin resistance in ovarian cancer cells using multiple assays. […] The Combination index (CI), which quantitatively describes the interaction between drugs including synergism (CI<1), additive effect (CI=1), and antagonism (CI>1), was calculated."}, "[2]": {"test_system": "SKOV3 CR cells", "assay": "combinational high throughput screen with cisplatin", "type": "cell-based", "conditions": "in combination with DMSO, 1 μM cisplatin or 20 μM cisplatin", "excerpt": "A combinational HTS using multiple compound libraries including NPC (NIH Pharmaceutical Collection), MIPE (Mechanism interrogation plate), and LOPAC (The Library of Pharmacologically Active Compounds) was used to identify compounds that can overcome cisplatin resistance of SKOV3 CR cells (FIG. 5). The library of pharmacologically active compounds (LOPAC®) of 1280 compounds (1) was purchased from Sigma. The NCGC Pharmaceutical Collection (NPC) of 2816 compounds and mechanism interrogation plate (MIPE) library of 1920 compounds were previously described. Bromberg, J Clin Invest 109: 1139-1142 (2002) and Buchert et al., Oncogene 35: 939-951 (2016). Compounds from all libraries were obtained as powder and dissolved in dimethyl sulfoxide (DMSO) […]. Combinational HTS was performed as previously described. Szasz et al., Oncotarget 7: 49322-49333 (2016). A total of 6,016 compounds were screened. […] In the second screen, these 112 compounds were selected for a dose-response confirmation screen in combination with DMSO, 1 μM cisplatin or 20 μM cisplatin (FIG. 5)."}, "[3]": {"test_system": "phosphorylation of JAK2 (Y1007/1008) and STAT5 (Y694)", "assay": "western blot of JAK2/STAT5 signaling", "type": "cell-based", "method": "FIG. 22 is an illustration showing that LY2784544 down-regulates JAK2/STAT5 signaling in SKOV3 CR cells. Cells were treated with the indicated concentrations of LY2784544 for 48 hr.\nFIG. 23 is an illustration showing the immunoblotting for the indicated targets in SKOV3 CR cells treated with vehicle (DMSO), 3 μM LY2784544, 5 μM cisplatin, or the combination for 48 hr.\nTo investigate the molecular mechanism by which the JAK2-mediated pathway regulates cisplatin resistance of ovarian cancer, the activation of the JAK2-mediated pathway in paired sensitive cell line (SKOV3, IGROV1, PEO1) and resistant cell lines (SKOV3 CR, IGROV1 CR, PEO4) was examined by western blot. Compared to cisplatin sensitive cells SKOV3 or IGROV1, the JAK2 protein levels are not changed in cisplatin resistant cells SKOV3 CR, IGROV1 CR, or PEO4.\nThe effects of LY2784544 on the JAK2/STAT5 signaling pathway in both SKOV3 and SKOV3 CR cells were examined."}, "[4]": {"test_system": "IL-11", "assay": "IL-11 secretion by ELISA in cell culture medium", "type": "cell-based, human", "conditions": "24 hr", "method": "(§5) FIG. 69 are bar graphs ((A)-(C) and (E)-(F)) and illustrations ((D) and (G)) showing that reactive oxygen species (ROS) induces IL-11 expression. (A) is a bar graph showing quantification of ROS production in SKOV3 and SKOV3 CR cells. Data are represented as means±SD from three independent experiments. **p<0.01. Scale bar, 100 μm. (B) is a bar graph showing quantification of ROS production in SKOV3 CR cells after treatment with the ROS inhibitor YCG063 at 20 μM for 24 hr. Data are represented as means±SD from three independent experiments. ***p<0.001. (C) is a bar graph showing IL-11 levels measured by ELISA in the medium of SKOV3 CR cells treated with YCG063 at 20 μM for 24 hr. Data are represented as mean±SD from three independent experiments performed in triplicate. ***p<0.001. (D) is an illustration showing an immunoblot of phosphorylated JAK2 and STAT5 in SKOV3 CR cells treated with YCG063 (20 μM) for 24 hr. (E) is a bar graph showing quantification of ROS production in SKOV3 cells after treated with the ROS inhibitor YCG063 (20 μM), cisplatin (1 μM), or both for 24 hr. Data are represented as means±SD from three independent experiments. **p<0.01, ***p<0.001, n.s. means not significant by one-way ANOVA. (F) is a bar graph showing IL-11 levels measured by ELISA in SKOV3 cells treated with YCG063 (20 μM), cisplatin (1 μM) or both for 24 hr. Data are represented as mean±SD from three independent experiments performed in triplicate. ***p<0.001 by one-way ANOVA. (G) is an illustration showing an immunoblot of phosphorylated JAK2 and STAT5 in SKOV3 CR cells treated with YCG063 (20 μM), cisplatin (1 μM) or both for 24 hr.\nNext, the factor from medium that contributes to cisplatin resistance of SKOV3 CR cells was investigated. […] The cell-free culture medium, mouse serum, and patient serum were analyzed for IL-11 levels using a human IL-11 ELISA kit (R&D Systems) according to the manufacturer's instructions. The absorbance was read at 450 nm using a microplate reader (BioTek). The data were normalized to the cell number. […]"}, "[5]": {"test_system": "reactive oxygen species (ROS)", "assay": "ROS production (CellROX Orange reagent)", "type": "cell-based", "conditions": "SKOV3 cells, YCG063 20 μM, cisplatin 1 μM, 24 hr", "method": "as §5, with “(D) is an illustration showing an immunoblot of phosphorylated JAK2 and STAT5 in SKOV3 CR cells treated with YCG063 (20 μM) for 24 hr.” left out, “Data are represented as means±SD from three independent experiments. **p<0.01, ***p<0.001, n.s. means not significant by one-way ANOVA.” left out, “Data are represented as mean±SD from three independent experiments performed in triplicate. ***p<0.001 by one-way ANOVA. (G) is an illustration showing an immunoblot of phosphorylated JAK2 and STAT5 in SKOV3 CR cells treated with YCG063 (20 μM), cisplatin (1 μM) or both for 24 hr.” left out\nDNA damage induces generation of reactive oxygen species (ROS). […] ROS was detected with a live cell-permeable, fluorophore CellROX Orange reagent (Thermo Fisher Scientific) according to the manufacturer's instructions. […] ROS intensity was analyzed using ImageJ (NIH) software. […]"}, "[6]": {"test_system": "FRA1", "assay": "immunoblot of phosphorylated and total FRA1", "type": "cell-based", "conditions": "SKOV3 CR cells, 20 μM, 24 hr", "excerpt": "FIG. 70 are illustrations ((A), (B), and (D)) and a bar graph (C) showing that ROS induces IL-11 expression by promoting expression of FOSL1 (FRA1). (A) is an illustration showing total and phosphorylated levels of FRA1 in SKOV3 and SKOV3 CR cells. […] (C) is a bar graph showing IL-11 levels measured by ELISA in the medium of SKOV3 CR cells transfected with FOSL1 siRNA for 48 hr. Data are represented as mean±SD from three independent experiments performed in triplicate. ***p<0.001. (D) is an illustration showing an immunoblot of phosphorylated and total FRA1 protein in SKOV3 CR cells treated with YCG063 20 μM for 24 hr.\nTo achieve this goal, pathway analyses using PathwayNet were conducted, which identified a total of 20 transcription factors that likely regulate IL-11. […] It was next tested whether ROS is required for activation or expression of FRA1 by treating SKOV3 CR cells with YGC063."}, "[7]": {"test_system": "SKOV3 cells", "assay": "cell viability / proliferation (SRB) assay, SKOV3 parental cells", "type": "cell-based", "method": "as §1, §2, §3, §4"}}, "data": [{"molecule": "NS(=O)(=O)OC[C@@H]1C[C@@H](n2ccc3c(N[C@H]4CCc5ccccc54)ncnc32)C[C@@H]1O", "note": "[MLN4924]", "values": [{"measurement": "sensitization of SKOV3 CR cells to cisplatin (proliferation)", "setting": "[1]", "value": "can sensitize SKOV3 CR cells to cisplatin"}, {"measurement": "sensitization to cisplatin in second (dose-response confirmation) screen", "setting": "[2]", "value": "significantly sensitize SKOV3 CR cells to cisplatin"}]}, {"molecule": "C/C(=N\\NC(=S)N1CCC1)c1ccccn1", "note": "[NSC319726]", "values": [{"measurement": "sensitization of SKOV3 CR cells to cisplatin (proliferation)", "setting": "[1]", "value": "can sensitize SKOV3 CR cells to cisplatin"}, {"measurement": "sensitization to cisplatin in second (dose-response confirmation) screen", "setting": "[2]", "value": "significantly sensitize SKOV3 CR cells to cisplatin"}]}, {"molecule": "Cc1cnc(Nc2ccc(CN3CCOCC3)cc2)nc1Nc1cccc(S(=O)(=O)NC(C)(C)C)c1", "note": "[TG46]", "values": [{"measurement": "medium CI (combination index)", "setting": "[1]; SKOV3 CR cells", "value": 0.77}]}, {"molecule": "Cc1cnc(Nc2ccc(OCCN3CCCC3)cc2)nc1Nc1cccc(S(=O)(=O)NC(C)(C)C)c1", "note": "[TG101348]", "values": [{"measurement": "medium CI (combination index)", "setting": "[1]; SKOV3 CR cells", "value": 0.77}]}, {"molecule": "CCCCCOc1ccc(/C=N/NC(=O)CSc2c([N+](=O)[O-])ncn2C)cc1", "note": "[YCG063]", "values": [{"measurement": "phosphorylation of JAK2 and STAT5", "setting": "[3]; SKOV3 CR cells, YCG063 20 μM, 24 hr", "value": "significantly reduced"}, {"measurement": "IL-11 secretion", "setting": "[4]; SKOV3 CR cells, YCG063 20 μM", "value": "significantly reduced IL-11 secretion"}, {"measurement": "cisplatin-induced IL-11 secretion", "setting": "[4]; SKOV3 cells, YCG063 20 μM with cisplatin 1 μM", "value": "suppressed cisplatin-induced IL-11 secretion"}, {"measurement": "ROS production", "setting": "[5]", "value": "suppressed ROS production in SKOV3 cells"}, {"measurement": "expression and phosphorylation of FRA1", "setting": "[6]", "value": "reduced the expression of FRA1 as well as its phosphorylation"}]}, {"molecule": "N.N.O=C([O-])C1(C(=O)[O-])CCC1.[Pt+2]", "note": "[carboplatin]", "values": [{"measurement": "IC50", "setting": "[7]; SKOV3 parental cells, 5 days", "value": 25.2, "unit": "µM"}, {"measurement": "fold increase of IC50, SKOV3 CR compared to parental SKOV3", "setting": "[1]; 5 days", "value": 4, "unit": "fold"}, {"measurement": "IC50", "setting": "[1]; SKOV3 CR cells, 5 days", "value": 118, "unit": "µM"}]}, {"molecule": "B1", "values": [{"measurement": "resistance of SKOV3 cells to cisplatin (proliferation)", "setting": "[7]; IL-11 for 4 hr then cisplatin 5 days", "value": "significantly increased its resistance to cisplatin"}, {"measurement": "phosphorylation of JAK2 and STAT5", "setting": "[3]; SKOV3 parental cells, 10 ng/mL IL-11 for 4 hr", "value": "did increase the phosphorylation of JAK2 (Y1007/1008) as well as phosphorylation of STAT5 (Y694)"}]}]}
